Test results taken from patent US9408793B2, “Selective compounds inhibiting CYP26A1 useful in cosmetic and pharmaceutical compositions” (GALDERMA RESEARCH & DEVELOPMENT, priority 2012, dated 2016).

Experiments:
human CYP26A1 enzyme = target: T1, human CYP26A1 enzyme (Homo sapiens, UniProt O43174); assay: Cell test, HeLa cells overexpressing human CYP26A1, metabolism of radiolabelled retinoic acid (3H-RA); assay type: cell-based; settings: for AC50: HeLa cells overexpressing human CYP26A1, 3 h incubation with 3H-RA, mean of two experiments; for CYP26B1/CYP26A1 (selectivity ratio of mean AC50): ratio of AC50 CYP26B1 to AC50 CYP26A1; for Isoform activity in words: CYP26A1 versus CYP26B1, HeLa cell test
T1 construct: expressed in transfected cells; host or cells: HeLa cells
T1 sequence (O43174 1-497): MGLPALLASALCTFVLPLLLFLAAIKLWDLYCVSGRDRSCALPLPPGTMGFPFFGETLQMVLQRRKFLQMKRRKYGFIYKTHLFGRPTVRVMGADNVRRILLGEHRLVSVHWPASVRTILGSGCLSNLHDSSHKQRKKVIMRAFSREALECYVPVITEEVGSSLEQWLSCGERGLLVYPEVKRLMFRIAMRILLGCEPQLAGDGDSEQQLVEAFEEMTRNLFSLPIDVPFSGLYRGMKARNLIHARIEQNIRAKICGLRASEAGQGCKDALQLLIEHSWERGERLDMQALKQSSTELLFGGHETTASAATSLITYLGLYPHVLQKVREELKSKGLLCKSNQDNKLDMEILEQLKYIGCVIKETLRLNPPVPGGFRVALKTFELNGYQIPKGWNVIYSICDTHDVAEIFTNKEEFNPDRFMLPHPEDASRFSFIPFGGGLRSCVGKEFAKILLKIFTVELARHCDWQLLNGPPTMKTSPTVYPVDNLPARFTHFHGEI
Experimental: (§1) A cell test using HeLa cells overexpressing either the human CYP26A1 enzyme or the human CYP26B1 enzyme, similar to that described in White et al.(Proc Natl Acad Sci U S A. 2000 Jun 6; 97(12): 6403-8), was used. […] After the incubation time of 3 h, the reaction was stopped and an extraction phase was carried out in order to separate the aqueous and organic layers. The amount of radioactivity present in the aqueous layer was then measured as an indicator of the amount of RA which was metabolized.
(§2) A first experiment using 3 different concentrations of compounds according to the invention (0.1, 1 and 10 μM) was carried out in order to evaluate the inhibitory activity of the compounds. A second test was then carried out with a wide range of concentrations (0.01, 0.1, 0.5, 1, 5 and 10 μM).

human CYP26B1 enzyme = target: T2, human CYP26B1 enzyme (Homo sapiens, UniProt Q9NR63); assay: Cell test, HeLa cells overexpressing human CYP26B1, metabolism of radiolabelled retinoic acid (3H-RA); assay type: cell-based; settings: 3 h incubation with 3H-RA, mean of two experiments
T2 construct: expressed in transfected cells; host or cells: HeLa cells
T2 sequence (Q9NR63 1-512): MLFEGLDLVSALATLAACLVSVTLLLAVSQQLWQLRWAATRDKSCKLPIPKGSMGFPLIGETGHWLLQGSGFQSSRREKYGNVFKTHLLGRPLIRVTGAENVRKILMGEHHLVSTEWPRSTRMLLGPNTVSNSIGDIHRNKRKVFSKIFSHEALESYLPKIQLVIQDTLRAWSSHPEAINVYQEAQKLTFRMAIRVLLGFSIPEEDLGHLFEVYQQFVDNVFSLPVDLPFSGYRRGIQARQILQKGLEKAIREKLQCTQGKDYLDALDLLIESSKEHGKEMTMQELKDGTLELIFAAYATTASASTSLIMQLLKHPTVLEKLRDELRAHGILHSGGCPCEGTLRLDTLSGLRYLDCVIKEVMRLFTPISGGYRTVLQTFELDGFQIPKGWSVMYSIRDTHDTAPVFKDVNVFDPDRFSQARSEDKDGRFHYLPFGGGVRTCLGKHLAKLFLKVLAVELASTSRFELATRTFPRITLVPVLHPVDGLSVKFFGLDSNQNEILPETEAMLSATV
Experimental: as §1
as §2, with “μM). The results obtained during these two tests are similar.” for “μM).”
The following table lists the mean of the AC50 values obtained over these two experiments.

stratum corneum = assay: Measurement of the thickness of the stratum corneum in Fuzzy rats; assay type: in vivo, rat; settings: for Thickness of the stratum corneum (μm) / Thickness of the stratum corneum relative to the carrier: male Fuzzy rats, topical, 24 days after the treatment
Experimental: Male Fuzzy rats are separated into four batches each comprising five rats. A topical treatment is carried out on each batch by administering, respectively, a carrier acting as a control, a dose of 0.000001% of retinol, a dose of 0.1% of retinol and a dose of 0.3% of a compound according to the invention corresponding to Example 1.
24 days after the treatment, the rats are euthanized and a 10 μm section of skin is sampled in order to perform a biopsy. A 1M NaOH solution is added to each section in order to soften the stratum corneum. The photos under a microscope are taken in a time period of 2 minutes after the addition of the 1M NaOH solution.
The table below presents the results on the thickness of the stratum corneum for the various batches.

CYP26B1 isoform = target: T3, CYP26B1 isoform (Homo sapiens, UniProt Q9NR63); settings: background statement; cited from earlier work
T3 sequence (Q9NR63 1-512): T2 sequence (Q9NR63 1-512)

Row | Compound | AC50 (human CYP26A1 enzyme) | CYP26B1/CYP26A1 (selectivity ratio of mean AC50) (human CYP26A1 enzyme) | AC50 (human CYP26B1 enzyme) | Thickness of the stratum corneum (μm) (stratum corneum; dose 0.3%) | Thickness of the stratum corneum relative to the carrier (stratum corneum; dose 0.3%) | Photographs of the keratinous layer (FIGS. 2 and 3), result in words (stratum corneum; rats treated with 0.3% versus carrier) | Isoform activity in words (human CYP26A1 enzyme) | Activity on the CYP26B1 isoform (CYP26B1 isoform) | Thickness of the stratum corneum (μm) (stratum corneum; dose 0.000001%) | Thickness of the stratum corneum relative to the carrier (stratum corneum; dose 0.000001%) | Thickness of the stratum corneum (μm) (stratum corneum; dose 0.1%) | Thickness of the stratum corneum relative to the carrier (stratum corneum; dose 0.1%)
1 | CC1(C)CCC(C)(C)c2cc(S(=O)(=O)CCc3ccc(C(=O)O)cc3)ccc21 [Compound 1, 4-[2-(5,5,8,8-Tetramethyl-5,6,7,8-tetrahydronaphthalene-2-sulphonyl)ethyl]benzoic acid] | 190 nM | 261.50 | 50300 nM | 24.07 μm | 0.57 | decrease in the thickness of the stratum corneum |  |  |  |  |  | 
2 | Clc1cccc(C(c2ccc3[nH]cnc3c2)n2ccnc2)c1 (centres unmarked) [Liarozole] |  |  | 320 nM |  |  |  | more active on CYP26B1 than on CYP26A1 |  |  |  |  | 
3 | CCC(CC)C(c1ccc(Nc2nc3ccccc3s2)cc1)n1cncn1 (centres unmarked) [Rambazole] | 4 nM | 16.82 | 64 nM |  |  |  | active on the inhibition of the activity of the two isoforms | about 62 nM |  |  |  | 
4 | CC1=C(/C=C/C(C)=C/C=C/C(C)=C/CO)C(C)(C)CCC1 [Retinol] |  |  |  |  |  |  |  |  | 41.60 μm | 0.98 | 26.24 μm | 0.62
